Data: ChEMBL document CHEMBL3407474, “Structural insight of glitazone for hepato-toxicity: Resolving mystery by PASS” (Bioorg Med Chem Lett, 2015)
Activity calls are given as the source filed them. The rule behind the calls is not given here.

How the values were obtained:
HepG2 [1] = assay: Induction of p53 protein level in human HepG2 cells at 50 uM upto 24 hrs by immunoblot analysis; format: functional, cell-based
HepG2 [2] = assay: Induction of p53 protein level in human HepG2 cells at 50 uM by immunoblot analysis; format: functional, cell-based; settings: TDE = time-dependent effect

Row | SMILES | Activity (HepG2 [1]) | Activity (HepG2 [2])
1 | CN(CCOc1ccc(CC2SC(=O)NC2=O)cc1)c1ccccn1 (centres undefined) | inactive | –
2 | CCc1ccc(CCOc2ccc(CC3SC(=O)NC3=O)cc2)nc1 (centres undefined) | inactive | –
3 | Cc1c(C)c2c(c(C)c1O)CCC(C)(COc1ccc(CC3SC(=O)NC3=O)cc1)O2 (centres undefined) | Active | tde
